The values below come from US20250108001A1, “TOPICAL OCULAR ADMINISTRATION OF AMBROXOL FOR OCULAR PAIN” (NeuVision Development LLC, priority 2022, published 2025).

The test system of data set [1] is cornea. The note with it: topical 0.1%, humans; cited from earlier work.
The subject of data set [2] is rat NOP models. As to the kind of experiment: Rat eye-wipe assay, Epi-off ocular pain model, 2M NaCl challenge. It is filed as in vivo. An excerpt:
With minor modification of established rat NOP models, ocular pain was created by removing corneal epithelium (Epi-off) under general anesthesia. 2M NaCl saline (in contrast to 5M NaCl used in previous studies) was used to trigger peripheral neuronal excitement in response to hyperosmolarity while minimizing the potential inherent irritancy to the cornea from 5M NaCl. Then, one hour was given to each rat to allow complete recovery from anesthesia before proceeding to subsequent study steps. […] Due to its short duration of action, a proparacaine group was not included in this study (FIG. 2). The rat eye-wipe assay is an established animal behavioral and neurophysiological tool for the assessment of corneal sensitivity to noxious stimuli (Price T J, et al., Br. J. Pharmacol.). Increased corneal sensitivity was shown in male rats following lacrimal gland excision which correlates with eye wiping behaviors in response to hypertonic saline (5M NaCl) (Meng I D, et al., Invest. Ophthalmol. Vis. Sci. 2015).

The test system of data set [3] is eyes of rats. The data set can be described thus: Corneal sensation by Cochet-Bonnet esthesiometer after one topical drop in rats. Conditions: rat eye; for minimum total corneal sensation preserved: at maximal effect (5-15 minutes), tactile sensation.
For data set [4], the target named is Nav1.7 nociceptor (Homo sapiens, UniProt Q15858). The note with it: versus lidocaine; cited from earlier work.
Nav1.7 nociceptor, sequence (Q15858 whole entry): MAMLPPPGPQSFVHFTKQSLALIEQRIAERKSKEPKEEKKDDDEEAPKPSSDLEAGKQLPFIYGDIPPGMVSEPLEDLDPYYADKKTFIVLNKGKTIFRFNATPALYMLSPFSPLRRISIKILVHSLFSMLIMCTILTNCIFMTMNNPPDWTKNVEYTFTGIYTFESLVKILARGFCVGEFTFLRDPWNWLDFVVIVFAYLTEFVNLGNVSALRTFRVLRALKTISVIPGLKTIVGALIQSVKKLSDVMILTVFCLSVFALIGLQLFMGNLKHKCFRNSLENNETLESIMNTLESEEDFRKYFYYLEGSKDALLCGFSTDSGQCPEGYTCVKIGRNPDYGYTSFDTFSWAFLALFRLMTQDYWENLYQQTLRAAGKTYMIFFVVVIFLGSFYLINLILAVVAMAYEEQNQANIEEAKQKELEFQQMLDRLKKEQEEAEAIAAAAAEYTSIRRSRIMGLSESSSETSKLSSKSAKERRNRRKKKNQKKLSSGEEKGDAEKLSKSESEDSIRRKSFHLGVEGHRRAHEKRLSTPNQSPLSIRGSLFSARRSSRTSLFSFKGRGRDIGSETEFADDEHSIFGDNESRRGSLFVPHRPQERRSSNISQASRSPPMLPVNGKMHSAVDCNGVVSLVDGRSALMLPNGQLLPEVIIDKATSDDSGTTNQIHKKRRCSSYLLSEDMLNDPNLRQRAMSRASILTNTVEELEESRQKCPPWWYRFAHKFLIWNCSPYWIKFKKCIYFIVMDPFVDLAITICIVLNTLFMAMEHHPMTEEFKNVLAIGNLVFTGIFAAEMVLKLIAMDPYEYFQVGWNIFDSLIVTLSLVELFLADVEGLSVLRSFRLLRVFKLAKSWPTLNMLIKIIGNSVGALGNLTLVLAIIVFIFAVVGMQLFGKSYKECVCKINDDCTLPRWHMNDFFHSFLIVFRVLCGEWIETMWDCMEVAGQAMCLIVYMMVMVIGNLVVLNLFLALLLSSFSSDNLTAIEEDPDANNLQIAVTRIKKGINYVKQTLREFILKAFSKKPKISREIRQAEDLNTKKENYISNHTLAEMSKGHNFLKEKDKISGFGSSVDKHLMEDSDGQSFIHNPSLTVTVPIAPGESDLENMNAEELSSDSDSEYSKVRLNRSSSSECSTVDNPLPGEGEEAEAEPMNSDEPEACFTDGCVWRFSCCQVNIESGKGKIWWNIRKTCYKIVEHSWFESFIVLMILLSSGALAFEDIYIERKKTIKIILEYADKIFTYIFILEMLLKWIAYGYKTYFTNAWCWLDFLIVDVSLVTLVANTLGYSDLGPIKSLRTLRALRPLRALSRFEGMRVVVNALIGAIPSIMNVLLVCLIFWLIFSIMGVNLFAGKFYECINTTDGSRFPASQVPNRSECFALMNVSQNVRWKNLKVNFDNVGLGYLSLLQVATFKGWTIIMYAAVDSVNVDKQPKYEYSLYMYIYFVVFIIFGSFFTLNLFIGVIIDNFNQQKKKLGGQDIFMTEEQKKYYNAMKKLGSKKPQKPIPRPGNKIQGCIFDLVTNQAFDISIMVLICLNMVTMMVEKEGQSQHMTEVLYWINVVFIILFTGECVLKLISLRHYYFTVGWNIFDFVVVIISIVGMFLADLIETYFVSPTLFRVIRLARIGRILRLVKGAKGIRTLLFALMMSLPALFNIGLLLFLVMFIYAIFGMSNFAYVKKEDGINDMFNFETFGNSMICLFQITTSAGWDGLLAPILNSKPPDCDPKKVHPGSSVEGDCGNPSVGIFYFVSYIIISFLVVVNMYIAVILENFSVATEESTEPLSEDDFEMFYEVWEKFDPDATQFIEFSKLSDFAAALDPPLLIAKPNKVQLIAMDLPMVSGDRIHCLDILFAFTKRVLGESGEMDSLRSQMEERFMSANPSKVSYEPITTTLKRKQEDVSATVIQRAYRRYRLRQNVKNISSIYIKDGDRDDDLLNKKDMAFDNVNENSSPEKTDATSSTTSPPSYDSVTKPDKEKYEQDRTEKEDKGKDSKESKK
Data set [5] has as its target Nav1.8 nociceptor (Homo sapiens, UniProt Q9Y5Y9). The note with it: versus lidocaine; cited from earlier work.
Where [6] appears, read: single drop 0.5% ambroxol, Epi-off rats, 2M NaCl.
[7] abbreviates: 0.3% and 0.5% ambroxol HCl solutions.

Nav1.8 nociceptor, sequence (Q9Y5Y9 whole entry): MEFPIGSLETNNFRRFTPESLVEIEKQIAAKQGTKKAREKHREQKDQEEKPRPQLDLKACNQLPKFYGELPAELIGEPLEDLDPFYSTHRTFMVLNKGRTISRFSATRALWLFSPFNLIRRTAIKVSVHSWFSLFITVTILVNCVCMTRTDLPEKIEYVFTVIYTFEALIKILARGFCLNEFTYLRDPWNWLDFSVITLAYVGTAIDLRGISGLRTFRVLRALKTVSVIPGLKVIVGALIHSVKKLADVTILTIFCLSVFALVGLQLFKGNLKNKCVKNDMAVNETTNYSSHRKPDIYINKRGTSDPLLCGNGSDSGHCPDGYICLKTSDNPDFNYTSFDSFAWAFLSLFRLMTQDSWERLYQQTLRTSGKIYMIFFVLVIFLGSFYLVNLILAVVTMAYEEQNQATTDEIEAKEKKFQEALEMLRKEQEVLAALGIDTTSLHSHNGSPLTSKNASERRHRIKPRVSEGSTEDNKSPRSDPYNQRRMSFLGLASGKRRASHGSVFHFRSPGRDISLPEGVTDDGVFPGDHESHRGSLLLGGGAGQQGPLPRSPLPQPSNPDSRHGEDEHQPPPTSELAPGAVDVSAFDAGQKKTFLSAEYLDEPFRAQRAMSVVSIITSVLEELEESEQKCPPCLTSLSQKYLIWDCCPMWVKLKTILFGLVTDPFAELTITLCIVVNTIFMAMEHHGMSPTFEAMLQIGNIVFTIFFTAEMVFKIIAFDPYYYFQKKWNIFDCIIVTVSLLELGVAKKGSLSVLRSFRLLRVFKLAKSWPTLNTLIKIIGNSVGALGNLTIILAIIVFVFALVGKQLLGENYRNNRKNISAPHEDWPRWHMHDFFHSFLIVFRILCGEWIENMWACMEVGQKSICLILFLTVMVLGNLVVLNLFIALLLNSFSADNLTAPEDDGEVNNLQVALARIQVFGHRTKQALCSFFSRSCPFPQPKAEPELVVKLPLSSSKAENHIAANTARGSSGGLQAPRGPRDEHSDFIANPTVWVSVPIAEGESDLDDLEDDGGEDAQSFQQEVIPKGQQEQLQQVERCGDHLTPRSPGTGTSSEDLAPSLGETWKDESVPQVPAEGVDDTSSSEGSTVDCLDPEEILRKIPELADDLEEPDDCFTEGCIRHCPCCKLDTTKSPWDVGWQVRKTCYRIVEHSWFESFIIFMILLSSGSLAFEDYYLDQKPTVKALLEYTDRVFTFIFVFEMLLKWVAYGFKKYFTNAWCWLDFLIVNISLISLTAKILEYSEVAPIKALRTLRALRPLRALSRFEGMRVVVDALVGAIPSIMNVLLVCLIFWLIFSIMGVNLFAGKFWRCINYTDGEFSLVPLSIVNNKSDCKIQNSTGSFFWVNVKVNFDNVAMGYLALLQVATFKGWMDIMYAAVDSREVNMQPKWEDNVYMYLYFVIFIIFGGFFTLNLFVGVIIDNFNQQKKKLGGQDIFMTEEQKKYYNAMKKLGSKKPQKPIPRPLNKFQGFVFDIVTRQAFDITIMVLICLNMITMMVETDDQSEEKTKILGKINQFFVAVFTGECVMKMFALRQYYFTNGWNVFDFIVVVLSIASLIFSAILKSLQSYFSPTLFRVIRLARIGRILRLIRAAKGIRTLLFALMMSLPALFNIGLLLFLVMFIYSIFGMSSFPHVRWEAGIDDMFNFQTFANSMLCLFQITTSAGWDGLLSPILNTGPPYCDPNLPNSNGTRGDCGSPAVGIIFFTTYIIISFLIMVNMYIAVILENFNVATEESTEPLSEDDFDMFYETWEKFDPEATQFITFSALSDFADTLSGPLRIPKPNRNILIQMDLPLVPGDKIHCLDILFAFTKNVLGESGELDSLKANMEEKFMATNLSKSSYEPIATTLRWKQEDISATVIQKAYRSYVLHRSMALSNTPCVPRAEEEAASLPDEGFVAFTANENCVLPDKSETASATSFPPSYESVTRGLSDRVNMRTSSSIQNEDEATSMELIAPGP

For `O=C(O)Cc1ccccc1Nc1c(Cl)cccc1Cl` [diclofenac], in data set [1], the cornea anesthetic effect result is “does not have clinically significant cornea anesthetic effect”.

As for `Nc1c(Br)cc(Br)cc1CN[C@H]1CC[C@H](O)CC1` [ambroxol, trans-4-(2-Amino-3,5-dibrombenzylamino)-cyclohexanol], the “time of maximal effect in eye-wipe assay” value in data set [2] (0.5% ambroxol-containing formulation, after administration) was “up to 30 min”. Also, in data set [2] (setting [6]), the “duration of reduction in eye wiping count/min” value is reported as “at least 4 hours” and the “sensitivity to hyperosmolarity at the ocular surface” value was “obviously preserved”. Besides, the “eye wiping count/min in response to 2M NaCl” value in data set [2] (single drop 0.5% ambroxol, Epi-off rats, versus carrier buffer control) is “significant reduction”. Besides, the “minimum total corneal sensation preserved” value in data set [3] (0.3% ambroxol HCl solution) is reported as no less than 15%. Further, in data set [3] (setting [7]), the “duration of drug action on corneal sensation” value is “about 4 hours” and the “time of maximal effect on corneal sensation” value lay within 5 to 15 min. For the same compound, in data set [3] (0.5% ambroxol HCl solution), the “minimum total corneal sensation preserved” value is on record as no less than 15%. Further, the “binding affinity for the Nav1.7 nociceptor relative to lidocaine” value in data set [4] is “same level”. Besides, in data set [5], the “potency in binding the Nav1.8 nociceptor relative to lidocaine” value is 40 times and the “potency of Nav1.8 block relative to lidocaine” value is listed as “approximately 40 times”.

In the case of `CCCOc1ccc(C(=O)OCCN(CC)CC)cc1N` [proparacaine], in data set [2] (0.5% proparacaine HCl, at its maximal effect (5 min), data not shown), the “change in eye wiping counts before (Epi-on) and after surgery (Epi-off)” value is given as “no significant change”. Further, in data set [3] (0.5% proparacaine), the “corneal sensor network block (FIG. 1)” value is “completely blocked”.
